Reference: patent publication US4916068A, “Bioconversion production of ascorbic acid with L-galactono-1,4-oxidase” (Kraft, Inc., priority 1984, dated 1990)

Columns and labels:
preferred yeast strains = experiment: utilization of galactose derivatives for L-ascorbic acid formation; assay type: cell-based; conditions: compared with L-galactono-gamma-lactone
Description: The D-galactose 18 is converted by catalytic oxidation to provide D-galacturonic acid 22. Processes to carry out this oxidative step for D-sugar acids are well known in the art and have been described in U.S. Pat. No. 2,265,121 by T. Reichstein. A variety of catalytic agents, e.g., platinum or palladium catalysts may be employed to convert blocked D-galactose (acetone) to the D-galacturonic acid product. The unblocked D-galacturonic acid may then be reduced by an appropriate reduction step such as reduction with gaseous hydrogen in the presence of a suitable hydrogenation catalyst such as Raney nickel, or palladium, to produce L-galactonic acid 24. Processes to carry out this chemical reduction are well known in the art such as described by H. Isbell, J. Res. Nat. Bur. Stds., 33, 45-60 (1944). Removal of water by distillation and condensation of the desalted L-sugar acid induces the formation of L-galactono-gamma-lactone 26 which is utilized in the microbiological conversion process of the present invention to form L-ascorbic acid. […] Keto-derivatives such as 5-Keto-L-Galactonic acid, are not utilized by the preferred yeast strains particularly described herein. The L-galactono-gamma-lactone 26, ethanol 16, and suitable organic and inorganic nutrients are combined to provide a fermentation medium 28 for a selected L-ascorbic acid overproducer.

Candida norvegensis = experiment: Assimilation tests (identification of the yeast); assay type: cell-based; conditions: C. norvegensis MF-56, MF-78 and parent CBS 2145
Description: The morphological, cultural and physiological characteristics of the mutant strain C. norvegensis Kraft, Inc. MF-56 ATCC 20686, the mutant strain C. norvegensis Kraft, Inc. MF-78 ATCC 20732, and the parent strain C. norvegensis CBS 2145 are consistent with the yeast description provided in The Yeasts, a taxononomic study (J. Lodder (Ed.) 1970, North Holland Publishing Co., Amsterdam) and A New Key to the Yeasts (J. A. Barnett & R. J. Parkhurst (Ed) 1974, North Holland Publishing Co., Amsterdam).

[1] = tested on: Candida utilus NRRL Y-900; experiment: aerobic bioconversion run with ethanol carbon source; assay type: cell-based; conditions: 48 hours; for Other redox Compounds / Total Ascorbate / L-Ascorbate: 0.2% substrate; for L-Ascorbate: HPLC with electrochemical detection; for Optical Density: SMl + 1.5% ethanol + 0.2% substrate, 30° C.
Method: (§1) Two yeast strains, Candida norvegensis CBS 1911 and Candida utilus NRRL Y-900 are utilized with an ethanol carbon source in separate bioconversion runs with each of two different substrates, L-galactono-1,4-lactone or D-galacturonic acid-methyl ester. The bioconversion runs are carried out under aerobic conditions in a 500 milliliter low actinic flask containing 50 ml of the biconversion medium. The bioconversions were carried out at a temperature of 30° C. for 48 hours with agitation provided by a skaker operating at 200 rpm. The medium for the C. norvegensis runs was the SMl medium previously described plus 1.5% ethanol plus 0.5% substrate. The medium for the C. utilus runs were SMl plus 1.5% ethanol plus 0.2% substrate.

[2] = tested on: Candida norvegensis CBS 1911; experiment: as above; assay type: cell-based; conditions: 48 hours; for Other redox Compounds / Total Ascorbate / L-Ascorbate: 0.5% substrate; for L-Ascorbate: HPLC with electrochemical detection; for Optical Density: SMl + 1.5% ethanol + 0.5% substrate, 30° C.
Method: as §1

[3] = tested on: L-Galactono-1,4-Lactone Oxidase; experiment: L-galactono-1,4-lactone oxidase activity, comparison of yeast strains; assay type: biochemical; conditions: C. norvegensis (CBS 1911)
Method: An assay mixture is provided which contains 2mM L-galactono-1,4-lactone and 50 mM Na-Citrate pH 6.8 in a total volume of 3 ml. The mixture is incubated at 37° C. in a shaker bath for up to 30 minutes. The reaction is stopped by adding 0.3 ml of 50% TCA. The precipitated protein is removed by centrifugation and the supernatant is assayed for L-ascorbate by high performance liquid chromatography analysis with electrochemical detection and by 2,6,dichloroindophenol titration.
A series of 5 detergents: (1) nonylphenol POE-9 (NP-9), (2) polydet (P-40), (3) octylglucoside, (4) (3-[3-cholamindopropyl)-dimethylammonio]1-propane sulfonate (CHAPS), and (5) (3-[3-cholamindopropyl)-dimethyl ammonio]-2-hydroxy-1-propane sulfonate).2H2 O (CHAPSO) were tested. […] Biochem. & Biophys., 191, 47a (1978)].

[4] = substrate: O=C1O[C@H]([C@@H](O)CO)[C@@H](O)[C@@H]1O; experiment: mitochondrial assay for L-galactono-1,4-lactone oxidase activity; assay type: biochemical, Saccharomyces Cerevisiae; conditions: other: intact mitochondrial system, substrate 0.1 mM to 50 mM; 37.0 °C
Description: Two pounds of Red Star baker's yeast (Saccharomyces Cerevisiae), which is not overproductive in L-Ascorbic acid were disrupted according to the method of Tzagoloff [J. Biol. Chem., 244, 5020 (1969)]. The frozen powder (900 gm) was transferred to 1.51 of a solution consisting of 0.4 M sucrose, 0.05 M Tris(hydroxymethyl) amino methane (Tris-HCl) pH 8.2, with one millimolar ethylene diamine tetracetic acid (EDTA). The pH of the suspension was adjusted to 7.5 with sodium hydroxide and the suspension was subsequently homogenized in a blender for 45 seconds. The homogenate was centrifuged at 2500×g for 15 minutes at 4° C. and the cell debris was discarded. The supernatant was centrifuged at 62000×g in a Shar-les centrifuge. The pellet (mitochondria) was saved and resuspended in 250 ml of a solution containing 0.25 M sucrose and 0.01 M Tris-HCl pH 7.5 and frozen.
An assay mixture is provided which contains 2mM L-galactono-1,4-lactone and 50 mM Na-Citrate pH 6.8 in a total volume of 3 ml. The mixture is incubated at 37° C. in a shaker bath for up to 30 minutes. The reaction is stopped by adding 0.3 ml of 50% TCA. […]
The specific activity of this sample was calculated to be 2.5 ×10^-3 micromoles/min/mg protein. […]

## O=C(O)[C@@H](O)[C@H](O)[C@H](O)C(=O)CO [5-Keto-L-Galactonic acid]
Preferred yeast strains
  utilization as substrate for L-ascorbic acid: not utilized

## O=C[C@H](O)[C@@H](O)[C@H](O)CO [D-Xylose]
Candida norvegensis
  Assimilation of carbon compounds: + latent or

## COC(=O)[C@@H](O)[C@H](O)[C@H](O)[C@@H](O)C=O [D-galacturonic acid-methyl ester]
[1]
  Other redox Compounds: 1.3 µg/mL
  Total Ascorbate: 4,383 ug/100 ml
  L-Ascorbate: 12.0 µg/mL
  Optical Density: 8.50
[2]
  Other redox Compounds: 17.5 µg/mL
  Total Ascorbate: 473 ug/100 ml
  L-Ascorbate: 3.5 µg/mL
  Optical Density: 2.60

## O=[N+]([O-])[O-].[K+] [KNO3]
Candida norvegensis
  Assimilation of KNO3: negative

## O=C(O)[C@@H](O)[C@H](O)[C@H](O)[C@@H](O)CO [L-galactonic acid]
Preferred yeast strains
  utilization as substrate for L-ascorbic acid: yields of L-ascorbic acid are reduced

## O=C1O[C@H]([C@@H](O)CO)[C@@H](O)[C@@H]1O [L-galactono-1,4-lactone]
[1]
  Other redox Compounds: 1.8 µg/mL
  Total Ascorbate: 15,905 ug/100 ml
  L-Ascorbate: 50.0 µg/mL
  Optical Density: 8.50
[2]
  Other redox Compounds: 10.1 µg/mL
  Total Ascorbate: 10,625 ug/100 ml
  L-Ascorbate: 92.8 µg/mL
  Optical Density: 2.05
[3]
  Km: 1300 µM

B1: L-galactono-1,4-lactone oxidase (Saccharomyces cerevisiae S288C) (protein)
chain: MSTIPFRKNYVFKNWAGIYSAKPERYFQPSSIDEVVELVKSARLAEKSLVTVGSGHSPSNMCVTDEWLVNLDRLDKVQKFVEYPELHYADVTVDAGMRLYQLNEFLGAKGYSIQNLGSISEQSVAGIISTGSHGSSPYHGLISSQYVNLTIVNGKGELKFLDAENDPEVFKAALLSVGKIGIIVSATIRVVPGFNIKSTQEVITFENLLKQWDTLWTSSEFIRVWWYPYTRKCVLWRGNKTTDAQNGPAKSWWGTKLGRFFYETLLWISTKIYAPLTPFVEKFVFNRQYGKLEKSSTGDVNVTDSISGFNMDCLFSQFVDEWGCPMDNGLEVLRSLDHSIAQAAINKEFYVHVPMEVRCSNTTLPSEPLDTSKRTNTSPGPVYGNVCRPFLDNTPSHCRFAPLENVTNSQLTLYINATIYRPFGCNTPIHKWFTLFENTMMVAGGKPHWAKNFLGSTTLAAGPVKKDTDYDDFEMRGMALKVEEWYGEDLKKFRKIRKEQDPDNVFLANKQWAIINGIIDPSELSD
notes: The pellet (mitochondria) was saved and resuspended in 250 ml; endogenous in cells; host or cells: mitochondria of Red Star baker's yeast (Saccharomyces cerevisiae)
[4]
  Km: 1600 µM
  Vmax: 0.34 µmol/min
